The results in this text go back to patent US9290551B2, “Compounds for treating papilloma virus infection” (NanoVir, LLC, priority 2012, dated 2016).

Bounds are passed on as bounds.

The first assay relates to HPV 16. Nature of the assay: HPV 16 episome DNA levels in W12E cells by Q-PCR (Taqman). It is filed as cell-based, Human papilloma virus.
Conditions: not given
The protocol: Cells maintaining HPV 16 DNA were cultured for 72 hours in the presence of cidofovir, interferon γ or polyamide. Viral DNA was then quantified using real-time PCR and compared to vehicle (DMSO)-treated control cultures.
Compounds were initially tested for effects on HPV 16 episome DNA levels in W12E cells by Q-PCR (Taqman™) over 3 concentration ranges (0.1, 1 and 10 μM). W12E cells are a cervical keratinocyte cell line originally identified by M. Stanley (Cambridge University), and later optimized and provided by P. Lambert (U. of Wisconsin). […] In all cases (initial tests and follow-up IC50 tests), dose testing was performed in triplicate. […] Furthermore, all experiments were conducted in triplicate, multiple times. The data were then combined, pseudo or effective IC50 values calculated, and variance determined to reveal the fit of the data to the model and its reliability.
Keratinocytes that maintain HPV 16 episomes were treated with increasing concentrations of polyamides.
In general terms: Quantitative PCR measures a nucleic acid by following its amplification.
In the case of `CN(CCCN)CCCNC(=O)CCNC(=O)c1cc(NC(=O)c2cc(NC(=O)c3cc(NC(=O)c4cc(NC(=O)c5cc(NC(=O)[C@H](N)CCNC(=O)c6cc(NC(=O)c7cc(NC(=O)c8cc(NC(=O)c9cc(NC(=O)c%10nccn%10C)cn9C)cn8C)cn7C)cn6C)cn5C)cn4C)cn3C)cn2C)cn1C` [Polyamide 1006, ImPPPPγNH2PPPPPβTa], the “antiviral activity in this study” value is “inactive”.

The assay is the same for the next values; noted with them: effective (pseudo) IC50; 50% reduction in HPV DNA relative to vehicle (0.1% DMSO); read-out: HPV-16 IC50.
On to `CN(C)CCCNC(=O)CCNC(=O)CCNC(=O)c1cc(NC(=O)c2cc(NC(=O)c3cc(NC(=O)CCNC(=O)c4cc(NC(=O)c5cc(NC(=O)c6cc(NC(=O)CCCNC(=O)c7cc(NC(=O)c8cc(NC(=O)c9cc(NC(=O)CCNC(=O)c%10cc(NC(=O)c%11cc(NC(=O)c%12cc(NC(=O)c%13nccn%13C)cn%12C)cn%11C)cn%10C)cn9C)cn8C)cn7C)cn6C)cn5C)cn4C)cn3C)cn2C)cn1C` [Polyamide 1025, ImPPPβPPPγPPPβPPPββDp], for which the IC50 (as a rule, the concentration that inhibits the measured activity by half) is more than 10 µM.
`CN(C)CCCNC(=O)CCNC(=O)c1cc(NC(=O)c2cc(NC(=O)c3cc(NC(=O)c4nc(NC(=O)CCCNC(=O)c5cc(NC(=O)c6nc(NC(=O)CCNC(=O)c7nccn7C)cn6C)cn5C)cn4C)cn3C)cn2C)cn1C` [Polyamide 1014, ImβIPγIPPPβDp]: the IC50 was more than 10 µM.
With `CN(C)CCCNC(=O)CCNC(=O)c1cc(NC(=O)c2cc(NC(=O)c3cc(NC(=O)c4cc(NC(=O)CCCNC(=O)c5cc(NC(=O)c6nc(NC(=O)CCNC(=O)c7nccn7C)cn6C)cn5C)cn4C)cn3C)cn2C)cn1C` [Polyamide 1015, ImβIPγPPPPβDp], the IC50 is more than 10 µM.
For `CN(C)CCCNC(=O)CCNC(=O)c1cc(NC(=O)c2cc(NC(=O)c3cc(NC(=O)CCNC(=O)c4cc(NC(=O)c5cc(NC(=O)c6cc(NC(=O)CCCNC(=O)c7cc(NC(=O)c8cc(NC(=O)CCNC(=O)c9cc(NC(=O)c%10cc(NC(=O)c%11cc(NC(=O)c%12nccn%12C)cn%11C)cn%10C)cn9C)cn8C)cn7C)cn6C)cn5C)cn4C)cn3C)cn2C)cn1C` [Polyamide 1002, ImPPPβPPγPPPβPPPβDp], the 50% inhibitory concentration (IC50) is more than 10 µM.
For the compound `CN(C)CCCNC(=O)CCNC(=O)c1cc(NC(=O)c2cc(NC(=O)c3nc(NC(=O)c4cc(NC(=O)c5nc(NC(=O)CCCNC(=O)c6cc(NC(=O)c7nc(NC(=O)c8cc(NC(=O)c9cc(NC(=O)c%10nccn%10C)cn9C)cn8C)cn7C)cn6C)cn5C)cn4C)cn3C)cn2C)cn1C` [Polyamide 1019, ImPPIPγIPIPPβDp], the IC50 is more than 10 µM.
On the same count and under the same terms, in the case of `CN(C)CCCNC(=O)CCNC(=O)c1cc(NC(=O)c2cc(NC(=O)c3cc(NC(=O)c4cc(NC(=O)c5cc(NC(=O)CCCNC(=O)c6cc(NC(=O)c7cc(NC(=O)c8cc(NC(=O)c9cc(NC(=O)c%10nccn%10C)cn9C)cn8C)cn7C)cn6C)cn5C)cn4C)cn3C)cn2C)cn1C` [Polyamide 1010, ImPPPPγPPPPPβDp] it was more than 10 µM; in that of `CN(C)CCCNC(=O)CCNC(=O)c1cc(NC(=O)c2cc(NC(=O)c3cc(NC(=O)c4cc(NC=O)cn4C)cn3C)cn2C)cn1C` [Polyamide 1038, OHC-PPPPβDp], more than 10 µM; in that of `CN(C)CCCNC(=O)CCNC(=O)c1cc(NC(=O)c2cc(NC(=O)c3cc(NC(=O)c4cc(NC(=O)c5cc(NC(=O)c6cc(NC=O)cn6C)cn5C)cn4C)cn3C)cn2C)cn1C` [Polyamide 1039, OHC-PPPPPPβDp], more than 10 µM.
As for `CN(CCCN)CCCNC(=O)CCNC(=O)c1cc(NC(=O)c2cc(NC(=O)c3cc(NC(=O)c4cc(NC(=O)c5cc(NC(=O)[C@H](N)CCNC(=O)c6cc(NC(=O)c7cc(NC(=O)c8cc(NC(=O)c9cc(NC(=O)c%10nccn%10C)cn9C)cn8C)cn7C)cn6C)cn5C)cn4C)cn3C)cn2C)cn1C` [Polyamide 1006, ImPPPPγNH2PPPPPβTa], the concentration for half-maximal inhibition (IC50) was more than 10 µM.
ImPPPPγPPPPPβTa-FITC [Polyamide 1007]: the IC50 is more than 10 µM.
The same measure, in the same setting: in the case of `CN(C)CCCNC(=O)CCNC(=O)c1cc(NC(=O)c2nc(NC(=O)c3cc(NC(=O)c4cc(NC(=O)c5nc(NC(=O)CCCNC(=O)c6cc(NC(=O)c7cc(NC(=O)c8nc(NC(=O)CCNC(=O)c9nccn9C)cn8C)cn7C)cn6C)cn5C)cn4C)cn3C)cn2C)cn1C` [Polyamide 1018, ImβIPPγIPPIPβDp] it was more than 10 µM; in that of `CN(C)CCCNC(=O)c1cc(NC(=O)c2cc(NC(=O)CCNC(=O)c3cc(NC(=O)c4cc(NC(=O)c5cc(NC(=O)CCNC(=O)c6cc(NC(=O)c7cc(NC(=O)CCCNC(=O)CCNC(=O)c8cc(NC(=O)c9cc(NC(=O)CCNC(=O)c%10cc(NC(=O)c%11cc(NC(=O)c%12cc(NC(=O)c%13nccn%13C)cn%12C)cn%11C)cn%10C)cn9C)cn8C)cn7C)cn6C)cn5C)cn4C)cn3C)cn2C)cn1C` [Polyamide 1056, ImPPPβPPβγPPβPPPβPPDp], more than 10 µM.
Still for that read-out and setting: the value for ImPPPPγPPPPPβTa-BOFLX [Polyamide 1008] was more than 10 µM.
In the case of `CN(C)CCCNC(=O)CCNC(=O)c1cc(NC(=O)c2cc(NC(=O)c3cc(NC(=O)c4nc(NC(=O)CCCNC(=O)c5cc(NC(=O)c6nc(NC(=O)c7nc(NC(=O)c8nccn8C)cn7C)cn6C)cn5C)cn4C)cn3C)cn2C)cn1C` [Polyamide 1012, ImIIPγIPPPβDp], the 50% inhibitory concentration (IC50) was more than 10 µM.
Still for that read-out and setting: in the case of `CN(C)CCCNC(=O)CCNC(=O)c1cc(NC(=O)c2cc(NC(=O)c3cc(NC(=O)CCNC(=O)c4cc(NC(=O)c5cc(NC(=O)c6cc(NC(=O)CCNC(=O)c7cc(NC(=O)CCNC(=O)CCCNC(=O)c8nc(NC(=O)c9cc(NC(=O)c%10cc(NC(=O)CCNC(=O)c%11cc(NC(=O)c%12nc(NC(=O)c%13cc(NC(=O)CCNC(=O)c%14cc(NC(=O)c%15cc(NC(=O)c%16nccn%16C)cn%15C)cn%14C)cn%13C)cn%12C)cn%11C)cn%10C)cn9C)cn8C)cn7C)cn6C)cn5C)cn4C)cn3C)cn2C)cn1C` [Polyamide 1041, ImPPβPIPβPPIγβPβPPPβPPPβDp] it was more than 10 µM; in that of `CN(C)CCCNC(=O)CCNC(=O)c1cc(NC(=O)c2cc(NC(=O)c3cc(NC(=O)c4cc(NC(=O)CCCNC(=O)c5nc(NC(=O)c6cc(NC(=O)c7cc(NC(=O)c8nccn8C)cn7C)cn6C)cn5C)cn4C)cn3C)cn2C)cn1C` [Polyamide 1011, ImPPIγPPPPβDp], more than 10 µM; in that of `CN(C)CCCNC(=O)CCNC(=O)c1cc(NC(=O)c2cc(NC(=O)c3nc(NC(=O)c4cc(NC(=O)CCCNC(=O)c5nc(NC(=O)c6cc(NC(=O)c7nc(NC(=O)c8nccn8C)cn7C)cn6C)cn5C)cn4C)cn3C)cn2C)cn1C` [Polyamide 1021, ImIPIγPIPPβDp], more than 10 µM.
As for `CN(C)CCCNC(=O)CCNC(=O)c1cc(NC(=O)c2nc(NC(=O)c3nc(NC(=O)c4cc(NC(=O)CCCNC(=O)c5nc(NC(=O)c6cc(NC(=O)c7cc(NC(=O)c8nccn8C)cn7C)cn6C)cn5C)cn4C)cn3C)cn2C)cn1C` [Polyamide 1017, ImPPIγPIIPβDp], the half-inhibitory concentration (IC50) is more than 10 µM.
Regarding `CN(C)CCCNC(=O)CCNC(=O)c1cc(NC(=O)c2cc(NC(=O)c3cc(NC(=O)c4cc(NC(=O)c5cc(NC(=O)CCCNC(=O)c6cc(NC(=O)c7nc(NC(=O)c8nc(NC(=O)CCNC(=O)c9nccn9C)cn8C)cn7C)cn6C)cn5C)cn4C)cn3C)cn2C)cn1C` [Polyamide 1016, ImβIIPγPPPPPβDp], the concentration for half-maximal inhibition (IC50) is more than 10 µM.
`CN(CCCN)CCCNC(=O)CCNC(=O)c1cc(NC(=O)c2cc(NC(=O)c3cc(NC(=O)c4cc(NC(=O)c5cc(NC(=O)CCCNC(=O)c6cc(NC(=O)c7cc(NC(=O)c8cc(NC(=O)c9cc(NC(=O)c%10nccn%10C)cn9C)cn8C)cn7C)cn6C)cn5C)cn4C)cn3C)cn2C)cn1C` [Polyamide 1005, ImPPPPγPPPPPβTa]: the IC50 is more than 10 µM.
On the same count and under the same terms, in the case of `CN(C)CCCNC(=O)CCNC(=O)c1cc(NC(=O)c2nc(NC(=O)c3cc(NC(=O)c4cc(NC(=O)CCCNC(=O)c5cc(NC(=O)c6cc(NC(=O)c7cc(NC(=O)c8nccn8C)cn7C)cn6C)cn5C)cn4C)cn3C)cn2C)cn1C` [Polyamide 1013, ImPPPγPPIPβDp] it was more than 10 µM.
